# Values joined by “and” are separate entries in the source; they are usually repeats but may differ in a detail not shown here. Equal entries are not always repeated.
# Experiments:
# S. pneumoniae TIGR4ΔfoID = experiment: Planktonic growth of S. pneumoniae foID deletion mutant; format: cell-based, Streptococcus pneumoniae; conditions: 0.25 μg/ml carolacton
# Protocol: FIG. 4. Carolacton effects on S. pneumoniae TIGR4 and foID deletion, complementation and fhs deletion mutants. (A) Growth inhibition of planktonic cultures of S. pneumoniae TIGR4 wild type, ΔfoID deletion mutant and controls in THBY. Carolacton (caro) (0.25 μg/ml) was added at an optical density of 600 nm (OD600) of 0.15. (B) Planktonic growth of the S. pneumoniae TIGR4 wild type and the TIGR4Δfhs mutant in THBY. Cultures were treated with 0.25 μg/ml carolacton (OD600 0.15).
# The Streptococcus mutans and Streptococcus pneumoniae strains used herein are UA159 and TIGR4, respectively. S. pneumoniae TIGR4 was routinely grown on Columbia blood agar plates (BD Biosciences) as described previously (Donner et. al, 2016). Streptococci were grown in Todd-Hewitt-Broth +1% (w/v) yeast extract (THBY, BD Biosciences)) at 37° C. and 5% CO2. The E. coli ToIC strain used in carolacton-resistant mutant development is an antibiotic-sensitive E. coli strain without its outer membrane channel protein ToIC. E. coli DH1OB or DH5α strain was used for gene cloning and E. coli BL21 (DE3) was used for protein expression. The protein expression plasmid pHis-TEV (Liu et al., 2009) was used for cloning and expression of all different foID gene orthologues studied herein.
# ecFoID Q98H = target: T1, ecFoID Q98H (Escherichia coli, UniProt P24186, Q98H); experiment: FoID dehydrogenase (DH) enzyme assay; format: biochemical, E. coli
# T1 construct: made in house; host or cells: E. coli BL21 (DE3)
# Protocol: (§1) (6R,S)-5,10-Methylene-5,6,7,8-tetrahydrofolic acid ((6R,S)-5,10-CH2-THF), calcium salt and (6R,S)-5,10-Methenyl-5,6,7,8-tetrahydrofolic acid ((6R,S)-5,10-CH=THF) chloride were purchased from Schircks Laboratories (Bauma, Switzerland) and were used as substrates for FoID dehydrogenase and cyclohydrolase enzyme assays, respectively. Only the R-isomer, which accounts for 50% of (6R,S)-5,10-CH2-THF and (6R,S)-5,10-CH=THF, respectively, is used by the enzyme. (6R,S)-5,10-CH2-THF was dissolved in N2-spargeled basic buffer (50 mM Tris-HCl (pH 8.0), 100 mM β-mercaptoethanol) as described by Sah and Varshney, 2015a (6R,S)-5,10-CH=THF was first dissolved in DMSO as a 100 mM stock solution.
# (§2) Because FoID is a bifunctional enzyme, dehydrogenase and cyclohydrolase activities were determined for FoID enzyme kinetics, respectively. The dehydrogenase activity of FoID was assayed for its substrate 5,10-CH2-THF and cofactor NADP+ (in the case of MTHFD2, NAD+ was used as cofactor) based on monitoring the formation of 5,10-CH=THF while the cyclohydrolase activity of FoID was determined for its substrate 5,10-CH=THF by monitoring the hydrolysis of 5,10-CH2-THF. The enzyme kinetics for the dehydrogenase activity of all FoIDs except hsMTHFD1_DC were determined at 30° C. in 50 mM Tris-HCl (pH 7.5), 30 mM β-mercaptoethanol. The hsMTHFD1_DC dehydrogenase activity was measured in 25 mM MOPS (pH 7.3), 30 mM β-mercaptoethanol at 30° C. To measure the enzyme kinetics constants for 5,10-CH2-THF, for example in the case of ecFoID, the NADP concentration was fixed at 1 mM and the concentration of 5,10-CH2-THF varied from 5 μM to 1,500 μM (R-isomer). Similarly, to measure the kinetic constants of ecFoID for NADP+, the concentration of 5,10-CH2-THF (R-isomer) was fixed at 1 mM and the concentration of NADP+ varied from 10 μM to 1,500 μM. For different FoIDs, the varied concentration range of substrates could be different. The 50 μL reactions of dehydrogenase assays were initiated by adding appropriate amounts enzyme (4 nM ecFoID, 4 nM spFoID, 15 nM hsMTHFD1_DC, 20 nM hsMTHFD2, 20 nM G8S, 20 nM Q98H, 10 nM K54N, 200 nM ΔK54R55 in the corresponding assays) and terminated with 50 μL 1 M HCl after 2 min incubation at 30° C. To monitor the formation of 5,10-CH=THF, the absorbance of the reaction mixture was monitored at 350 nm in micro UV cuvettes (BRAND, Essex, Connecticut, USA). The concentration of 5,10-CH=THF produced in the reaction was determined using an extinction co-efficient of 0.0249 μM-1 cm-1. Cyclohydrolase activity for each FoID was assayed in the same buffer as dehydrogenase activity at 30° C. but for 30 s. The concentration of FoID used in each assay was 5 nM of ecFoID, spFoID and hsMTHFD1_DC, respectively, and 2 nM of hsMTHFD2. The consumption of 5,10-CH=THF was measured by recording the absorbance of the reactions at 355 nm using the TECAN Infinite 200 PRO equipped with a monochromator. To measure the enzyme kinetic constants, different concentrations of 5,10-CH=THF (varied from […]) were used in […] reaction mixtures. The inhibition constants (Ki) of carolacton on FoID were determined by measuring the apparent Km values when adding certain amounts of carolacton to the enzyme reactions. For ecFoID, 10 nM carolacton was added in the dehydrogenase assay and 50 nM carolacton was used in the cyclohydrolase assay. For spFoID, 25 nM carolacton was added in both dehydrogenase assay and cyclohydrolase assay. For hsMTHFD1_DC, 30 nM carolacton was added in the dehydrogenase assay and 10 nM in the cyclohydrolase assay. […] To compare the inhibition effects of carolacton between the different FoIDs, the half maximal inhibitory concentration (IC50) of carolacton on the same amount of enzyme was determined for FoIDs involved in this study. The enzyme concentration used to determine dehydrogenase activity IC50 was 10 nM, and the enzyme used for cyclohydrolase IC50 measurements was 5 nM. All enzyme kinetics measurements were performed as independent triplicates. […]
# ecFoID G8S = target: T2, ecFoID G8S (Escherichia coli, UniProt P24186, G8S); experiment: FoID dehydrogenase (DH) enzyme assay; format: biochemical, E. coli
# T2 construct: made in house; host or cells: E. coli BL21 (DE3)
# Protocol: as §1, §2
# ecFoID = target: T3, ecFoID (Escherichia coli, UniProt P24186); experiment: FoID dehydrogenase (DH) enzyme assay; format: biochemical, E. coli; conditions: for Ki: carolacton inhibition on DH activity, ecFoID
# T3 construct: His-tag (vector pHis-TEV); made in house; host or cells: E. coli BL21 (DE3)
# Protocol: as §1, §2
# ecFoID ΔK54R55 = target: T4, ecFoID ΔK54R55 (Escherichia coli, UniProt P24186, DEL54-55); experiment: FoID dehydrogenase (DH) enzyme assay; format: biochemical, E. coli
# T4 construct: made in house; host or cells: E. coli BL21 (DE3)
# Protocol: as §1, §2
# ecFoID K54N = target: T5, ecFoID K54N (Escherichia coli, UniProt P24186, K54N); experiment: FoID dehydrogenase (DH) enzyme assay; format: biochemical, E. coli
# T5 construct: made in house; host or cells: E. coli BL21 (DE3)
# Protocol: as §1, §2
structure (smiles),measurement,setting,value
"CO[C@H](CC(=O)O)[C@@H](C)C(=O)[C@H](C)/C=C(\C)[C@H]1OC(=O)[C@H](O)[C@H](O)/C=C/[C@H](C)CCC[C@@H]1C [Carolacton, carolacton]",sensitivity of planktonic growth to carolacton,S. pneumoniae TIGR4ΔfoID,carolacton resistant
same,IC50,ecFoID Q98H,313 nM
same,IC50,ecFoID G8S,86.5 nM
same,IC50,ecFoID,15.5 nM
same,Ki,"ecFoID; Ki (5,10-CH2—THF), vs 5,10-CH2-THF",21 nM and 21.3 nM
same,Ki,"ecFoID; Ki (NADP^+), vs cofactor NADP+",11 nM and 10.9 nM
same,sensitivity of residual DH activity to carolacton,ecFoID ΔK54R55,completely insensitive
same,sensitivity of residual DH activity to carolacton,ecFoID K54N,completely insensitive
